In ChEMBL document CHEMBL2434921, “New synthetic aliphatic sulfonamido-quaternary ammonium salts as anticancer chemotherapeutic agents” (2013):
Activity calls are given as the source filed them. No cut-off for these calls is given here.

Experiments:
[1] = system: NCI-H23; assay: Growth inhibition of human NCI-H23 cells after 48 hrs by SRB assay; format: functional; conditions: NCI-H23, 48 h
[2] = system: HCT-15; assay: Growth inhibition of human HCT15 cells after 48 hrs by SRB assay; format: functional; conditions: HCT-15, 48 h
[3] = biological target: Rho-related GTP-binding protein RhoB (Homo sapiens) (UniProt P62745); assay: Transactivation of RhoB (unknown origin) transfected in human HeLa cells at 5 uM measured over 10 secs by dual luciferase reporter gene assay; format: cell-based
[4] = system: NUGC-3; assay: Growth inhibition of human NUGC3 cells after 48 hrs by SRB assay; format: functional; conditions: NUGC-3, 48 h
[5] = system: ACHN; assay: Growth inhibition of human ACHN cells after 48 hrs by SRB assay; format: functional
[6] = system: MDA-MB-231; assay: Growth inhibition of human MDA-MB-231 cells after 48 hrs by SRB assay; format: functional; conditions: MDA-MB-231, 48 h
[7] = system: PC-3; assay: Growth inhibition of human PC3 cells after 48 hrs by SRB assay; format: functional; conditions: PC-3, 48 h
[8] = system: PC-3; assay: Growth of human PC3 cells at 10 uM after 48 hrs by SRB assay; conditions: PC-3, 48 h
[9] = system: NUGC-3; assay: Growth of human NUGC3 cells at 1 uM after 48 hrs by SRB assay; conditions: NUGC-3, 48 h
[10] = system: ACHN; assay: Growth of human ACHN cells at 10 uM after 48 hrs by SRB assay
[11] = system: HCT-15; assay: Growth of human HCT15 cells at 3 uM after 48 hrs by SRB assay; conditions: HCT-15, 48 h
[12] = system: ACHN; assay: Growth of human ACHN cells at 0.1 uM after 48 hrs by SRB assay
[13] = system: ACHN; assay: Growth of human ACHN cells at 0.3 uM after 48 hrs by SRB assay
[14] = system: NUGC-3; assay: Growth of human NUGC3 cells at 0.1 uM after 48 hrs by SRB assay; conditions: NUGC-3, 48 h
[15] = system: NUGC-3; assay: Growth of human NUGC3 cells at 0.3 uM after 48 hrs by SRB assay; conditions: NUGC-3, 48 h
[16] = system: HCT-15; assay: Growth of human HCT15 cells at 0.3 uM after 48 hrs by SRB assay; conditions: HCT-15, 48 h
[17] = system: NCI-H23; assay: Growth of human NCI-H23 cells at 10 uM after 48 hrs by SRB assay; conditions: NCI-H23, 48 h
[18] = system: NCI-H23; assay: Growth of human NCI-H23 cells at 0.3 uM after 48 hrs by SRB assay; conditions: NCI-H23, 48 h
[19] = system: MDA-MB-231; assay: Growth of human MDA-MB-231 cells at 1 uM after 48 hrs by SRB assay; conditions: MDA-MB-231, 48 h
[20] = system: MDA-MB-231; assay: Growth of human MDA-MB-231 cells at 10 uM after 48 hrs by SRB assay; conditions: MDA-MB-231, 48 h
[21] = system: MDA-MB-231; assay: Growth of human MDA-MB-231 cells at 0.1 uM after 48 hrs by SRB assay; conditions: MDA-MB-231, 48 h
[22] = system: MDA-MB-231; assay: Growth of human MDA-MB-231 cells at 3 uM after 48 hrs by SRB assay; values are per cent of control; conditions: MDA-MB-231, 48 h
[23] = system: PC-3; assay: Growth inhibition of human PC3 cells at 1 uM after 48 hrs by SRB assay; values are per cent of control; conditions: PC-3, 48 h
[24] = system: PC-3; assay: Growth inhibition of human PC3 cells at 3 uM after 48 hrs by SRB assay; values are per cent of control; conditions: PC-3, 48 h
[25] = system: ACHN; assay: Growth inhibition of human ACHN cells at 3 uM after 48 hrs by SRB assay; values are per cent of control
[26] = system: ACHN; assay: Growth inhibition of human ACHN cells at 1 uM after 48 hrs by SRB assay; values are per cent of control
[27] = system: NUGC-3; assay: Growth inhibition of human NUGC3 cells at 3 uM after 48 hrs by SRB assay; values are per cent of control; conditions: NUGC-3, 48 h
[28] = system: PC-3; assay: Growth inhibition of human PC3 cells at 0.1 uM after 48 hrs by SRB assay; values are per cent of control; conditions: PC-3, 48 h
[29] = system: PC-3; assay: Growth inhibition of human PC3 cells at 0.3 uM after 48 hrs by SRB assay; values are per cent of control; conditions: PC-3, 48 h
[30] = system: HCT-15; assay: Growth inhibition of human HCT15 cells at 1 uM after 48 hrs by SRB assay; values are per cent of control; conditions: HCT-15, 48 h
[31] = system: NUGC-3; assay: Growth inhibition of human NUGC3 cells at 10 uM after 48 hrs by SRB assay; values are per cent of control; conditions: NUGC-3, 48 h
[32] = system: HCT-15; assay: Growth inhibition of human HCT15 cells at 10 uM after 48 hrs by SRB assay; values are per cent of control; conditions: HCT-15, 48 h
[33] = system: NCI-H23; assay: Growth inhibition of human NCI-H23 cells at 1 uM after 48 hrs by SRB assay; values are per cent of control; conditions: NCI-H23, 48 h
[34] = system: NCI-H23; assay: Growth inhibition of human NCI-H23 cells at 3 uM after 48 hrs by SRB assay; values are per cent of control; conditions: NCI-H23, 48 h
[35] = system: HCT-15; assay: Growth inhibition of human HCT15 cells at 0.1 uM after 48 hrs by SRB assay; values are per cent of control; conditions: HCT-15, 48 h
[36] = system: NCI-H23; assay: Growth inhibition of human NCI-H23 cells at 0.1 uM after 48 hrs by SRB assay; values are per cent of control; conditions: NCI-H23, 48 h
[37] = system: MDA-MB-231; assay: Growth inhibition of human MDA-MB-231 cells at 0.3 uM after 48 hrs by SRB assay; values are per cent of control; conditions: MDA-MB-231, 48 h

Sequence of Rho-related GTP-binding protein RhoB (Homo sapiens) (P62745 whole entry): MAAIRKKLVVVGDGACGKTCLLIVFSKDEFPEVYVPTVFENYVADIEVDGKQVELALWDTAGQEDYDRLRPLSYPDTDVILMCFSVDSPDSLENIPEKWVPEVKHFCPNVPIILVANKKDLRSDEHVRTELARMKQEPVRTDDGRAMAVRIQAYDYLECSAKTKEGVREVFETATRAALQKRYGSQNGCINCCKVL

Row | Compound | GI50 [1] [µM] | GI50 [2] [µM] | Activity [3] | GI50 [4] [µM] | GI50 [5] [µM] | GI50 [6] [µM] | GI50 [7] [µM] | growth, % of control at 10 µM [8] [%] | growth, % of control at 1 µM [9] [%] | growth, % of control at 10 µM [10] [%] | growth, % of control at 3 µM [11] [%] | growth, % of control at 0.1 µM [12] [%] | growth, % of control at 0.3 µM [13] [%] | growth, % of control at 0.1 µM [14] [%] | growth, % of control at 0.3 µM [15] [%] | growth, % of control at 0.3 µM [16] [%] | growth, % of control at 10 µM [17] [%] | growth, % of control at 0.3 µM [18] [%] | growth, % of control at 1 µM [19] [%] | growth, % of control at 10 µM [20] [%] | further results
1 | C=CC[N+](C)(C)CCN(C)S(=O)(=O)CCCCCCCCCCCCCC | 0.73 | 1.71 | Active | 0.83 | 1.39 | 1.8 | 0.46 | -22.9 | 73 | -36.7 | 49.9 | 92.6 | 101 | 91.6 | 97.1 | 91.6 | -9.2 | 80.4 | 99.4 | 20.2 | growth, % of control at 0.1 µM [21]: 88%; growth, % of control at 3 µM [22]: 49.7%; growth, % of control at 1 µM [23]: 48.6%; growth, % of control at 3 µM [24]: 8.4%; growth, % of control at 3 µM [25]: 45.7%; growth, % of control at 1 µM [26]: 80.3%; growth, % of control at 3 µM [27]: 19.3%; growth, % of control at 0.1 µM [28]: 86.7%; growth, % of control at 0.3 µM [29]: 83%; growth, % of control at 1 µM [30]: 81.8%; growth, % of control at 10 µM [31]: -8.4%; growth, % of control at 10 µM [32]: 22.6%; growth, % of control at 1 µM [33]: 70.8%; growth, % of control at 3 µM [34]: 24%; growth, % of control at 0.1 µM [35]: 90.5%; growth, % of control at 0.1 µM [36]: 78.2%; growth, % of control at 0.3 µM [37]: 107%
2 | CCCCCCCCCCCCCCS(=O)(=O)N(C)CCC[N+](C)(C)CC | 0.38 | 1.27 | Active | 0.13 | 0.54 | 0.75 | 0.22 | -31.6 | 7.9 | 16.9 | 42.2 | 87.9 | 78.5 | 75.5 | 46.3 | 87.8 | -16.9 | 79.8 | 55.2 | 7.1 | growth, % of control at 0.1 µM [21]: 95.9%; growth, % of control at 3 µM [22]: 32.1%; growth, % of control at 1 µM [23]: 14.6%; growth, % of control at 3 µM [24]: -17%; growth, % of control at 3 µM [25]: 31.4%; growth, % of control at 1 µM [26]: 41.7%; growth, % of control at 3 µM [27]: -12.5%; growth, % of control at 0.1 µM [28]: 84.9%; growth, % of control at 0.3 µM [29]: 68.3%; growth, % of control at 1 µM [30]: 68.9%; growth, % of control at 10 µM [31]: -18.3%; growth, % of control at 10 µM [32]: 23%; growth, % of control at 1 µM [33]: 38.4%; growth, % of control at 3 µM [34]: 3%; growth, % of control at 0.1 µM [35]: 106%; growth, % of control at 0.1 µM [36]: 96.4%; growth, % of control at 0.3 µM [37]: 91.4%
3 | CCCCCCCCCCCCCCS(=O)(=O)NCCC[N+](C)(C)CC | 0.33 | 1.14 | Active | 0.29 | 1.64 | 1.17 | 0.3 | -11.5 | 34 | 24.5 | 36.9 | 91.4 | 91.4 | 85.1 | 69 | 94.5 | -45.5 | 88.7 | 66.2 | 23.9 | growth, % of control at 0.1 µM [21]: 83.1%; growth, % of control at 3 µM [22]: 43.8%; growth, % of control at 1 µM [23]: 33.4%; growth, % of control at 3 µM [24]: 6.9%; growth, % of control at 3 µM [25]: 42.5%; growth, % of control at 1 µM [26]: 92.5%; growth, % of control at 3 µM [27]: 11.2%; growth, % of control at 0.1 µM [28]: 89.8%; growth, % of control at 0.3 µM [29]: 72.7%; growth, % of control at 1 µM [30]: 68.2%; growth, % of control at 10 µM [31]: -4.7%; growth, % of control at 10 µM [32]: 23.4%; growth, % of control at 1 µM [33]: 24%; growth, % of control at 3 µM [34]: -10.6%; growth, % of control at 0.1 µM [35]: 97%; growth, % of control at 0.1 µM [36]: 93.3%; growth, % of control at 0.3 µM [37]: 86.4%
